The values below come from patent US11459296B2, “Antibacterial compounds” (INFEX Therapeutics Limited, priority 2018, dated 2022).

A word on the CC50: it is the concentration at which the toxic effect on the cells reaches its halfway point. By pIC50 is commonly meant −log10 of the IC50, conventionally taken in molar units.

pIC50: −log10 of the molar value. Converted amounts (≈) assume the structure as drawn. Where a name gives a salt, the structure may show the parent alone.

Sequence of NDM-1 (C7C422 whole entry, looked up, species assumed): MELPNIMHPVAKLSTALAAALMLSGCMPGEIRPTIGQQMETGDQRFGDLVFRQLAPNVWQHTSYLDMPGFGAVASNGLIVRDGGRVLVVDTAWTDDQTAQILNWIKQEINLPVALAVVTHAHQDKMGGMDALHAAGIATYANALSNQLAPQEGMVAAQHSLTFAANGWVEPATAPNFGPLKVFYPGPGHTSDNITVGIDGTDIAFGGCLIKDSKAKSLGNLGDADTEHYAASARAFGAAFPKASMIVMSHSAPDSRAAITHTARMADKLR

Tested on in one data set: not listed separately
Kind of data set: Cytotoxicity Assay (CellTiter-Glo). The data set is classed as cell-based. The conditions noted are these: human, Hep G2 cells (ATCC HB-8065); 24 h exposure, cell viability; read-out: HepG2 CC50. How it is done: Cytotoxicity was evaluated in human Hep G2 cells (ATCC HB-8065) seeded at a density of 2×10^5 cells per well and incubated for 24 h at 37° C., 5% CO2. Cells were exposed to a doubling dilution series of test article. After 24 h exposure, the viability of the cells was determined using CellTiter-Glo® (Promega, Wis., USA) according to the manufacturer's instructions. Results are reported as the concentration of test article required to reduce cell viability by 50% (CC50).
On the technique in general: In ATP-based viability assays light output follows the ATP content of the culture.
As to `Nc1ccc(-c2ccn(S(N)(=O)=O)c2C(=O)O)cn1` [Example 1, 3-(6-Aminopyridin-3-yl)-1-sulfamoyl-1H-pyrrole-2-carboxylic acid], the CC50 at 24 h is greater than 256 µg/mL.

As to `Cc1ccc(-c2ccn(S(N)(=O)=O)c2C(=O)O)cc1` [Example 2, 3-(p-tolyl)-1-sulfamoyl-1H-pyrrole-2-carboxylic acid, sodium salt], the CC50 at 24 h is greater than 128 µg/mL. The same measure, in the same setting: next, `NS(=O)(=O)n1ccc(-c2ccccc2)c1C(=O)O` [Example 3, 3-Phenyl-1-sulfamoyl-1H-pyrrole-2-carboxylic acid, sodium salt]: greater than 128 µg/mL; `CN(C)S(=O)(=O)c1ccc(-c2ccn(S(N)(=O)=O)c2C(=O)O)cc1` [Example 4, 3-[4-(Dimethylsulfamoyl)phenyl]-1-sulfamoyl-1H-pyrrole-2-carboxylic acid, sodium salt]: greater than 128 µg/mL; `CS(=O)(=O)c1ccc(-c2ccn(S(N)(=O)=O)c2C(=O)O)cc1` [Example 5, 3-(4-Methanesulfonylphenyl)-1-sulfamoyl-1H-pyrrole-2-carboxylic acid, sodium salt]: greater than 256 µg/mL. The same measure, in the same setting: then `Cn1cc(-c2ccn(S(N)(=O)=O)c2C(=O)O)cn1` [Example 6, 3-(1-Methyl-1H-pyrazol-4-yl)-1-sulfamoyl-1H-pyrrole-2-carboxylic acid, sodium salt], with greater than 256 µg/mL; and `Cc1nn(C)c(C)c1-c1ccn(S(N)(=O)=O)c1C(=O)O` [Example 7, 1-Sulfamoyl-3-(1,3,5-trimethyl-1H-pyrazol-4-yl)-1H-pyrrole-2-carboxylic acid, sodium salt], with greater than 256 µg/mL; and `NS(=O)(=O)n1ccc(-c2cccnc2)c1C(=O)O` [Example 8, 3-(Pyridin-3-yl)-1-sulfamoyl-1H-pyrrole-2-carboxylic acid, sodium salt], with greater than 256 µg/mL. Turning to `NS(=O)(=O)n1ccc(C2CCCCC2)c1C(=O)O` [Example 10, 3-Cyclohexyl-1-sulfamoyl-pyrrole-2-carboxylic acid, sodium salt], the CC50 at 24 h amounted to 145 µg/mL. Still for that read-out and setting: next, `NS(=O)(=O)n1ccc(-c2ccc(-c3ccncc3)cc2)c1C(=O)O` [Example 13, 3-[4-(Pyridin-4-yl)phenyl]-1-sulfamoyl-1H-pyrrole-2-carboxylic acid]: greater than 256 µg/mL; `NS(=O)(=O)n1ccc(-c2ccccc2F)c1C(=O)O` [Example 14, 3-(2-Fluorophenyl)-1-sulfamoyl-pyrrole-2-carboxylic acid]: greater than 256 µg/mL.

In the case of `N#Cc1ccc(-c2ccn(S(N)(=O)=O)c2C(=O)O)cc1` [Example 15, 3-(4-Cyanophenyl)-1-sulfamoyl-1H-pyrrole-2-carboxylic acid], the CC50 at 24 h is greater than 256 µg/mL. On the same count and under the same terms, next, `NS(=O)(=O)n1ccc(-c2ccc(N3CCOCC3)nc2)c1C(=O)O` [Example 16, 3-[6-(Morpholin-4-yl)pyridin-3-yl]-1-sulfamoyl-1H-pyrrole-2-carboxylic acid]: greater than 64 µg/mL. Same read-out and setting: next, `CC(C)(C)OC(=O)N1CCN(S(=O)(=O)c2ccc(-c3ccn(S(N)(=O)=O)c3C(=O)O)cc2)CC1` [Example 17, 3-[4-(4-tert-Butoxycarbonylpiperazin-1-yl)sulfonylphenyl]-1-sulfamoyl-pyrrole-2-carboxylic acid, sodium salt]: 252 µg/mL; `Cc1ccccc1-c1ccn(S(N)(=O)=O)c1C(=O)O` [Example 20, 3-(o-Tolyl)-1-sulfamoyl-pyrrole-2-carboxylic acid]: greater than 256 µg/mL; `NS(=O)(=O)n1ccc(-c2ccc(S(=O)(=O)N3CCNCC3)cc2)c1C(=O)O` [Example 35, 3-[4-(Piperazine-1-sulfonyl)phenyl]-1-sulfamoyl-1H-pyrrole-2-carboxylic acid]: greater than 256 µg/mL. For `NS(=O)(=O)n1ccc(-c2ccc(OC3CCNCC3)cc2)c1C(=O)O` [Example 37, 3-[4-(Piperidin-4-yloxy)phenyl]-1-sulfamoyl-1H-pyrrole-2-carboxylic acid hydrochloride], the CC50 at 24 h was greater than 256 µg/mL. For `NS(=O)(=O)n1ccc(C2=CCNCC2)c1C(=O)O` [Example 38, 1-Sulfamoyl-3-(1,2,3,6-tetrahydropyridin-4-yl)-1H-pyrrole-2-carboxylic acid hydrochloride], the CC50 at 24 h is greater than 256 µg/mL. With `CC(=O)N1CCC(c2ccc(-c3ccn(S(N)(=O)=O)c3C(=O)O)cc2)CC1` [Example 48, 3-[4-(1-Acetylpiperidin-4-yl)phenyl]-1-sulfamoyl-1H-pyrrole-2-carboxylic acid], the CC50 at 24 h stood at 158 µg/mL (≈ 405 µM). Turning to `CN(C)S(=O)(=O)N1CCC(c2ccc(-c3ccn(S(N)(=O)=O)c3C(=O)O)cc2)CC1` [Example 49, 3-[4-[1-(Dimethylsulfamoyl)piperidin-4-yl]phenyl]-1-sulfamoyl-1H-pyrrole-2-carboxylic acid], the CC50 at 24 h turned out to be 66.4 µg/mL (≈ 145 µM).

Regarding `NS(=O)(=O)n1ccc(Cc2ccccc2)c1C(=O)O` [Example 54, 3-Benzyl-1-sulfamoyl-1H-pyrrole-2-carboxylic acid], the CC50 at 24 h is 248 µg/mL (≈ 884 µM). On to `NS(=O)(=O)n1ccc(C2CC2)c1C(=O)O` [Example 55, 3-Cyclopropyl-1-sulfamoyl-1H-pyrrole-2-carboxylic acid], for which the CC50 at 24 h is greater than 256 µg/mL. Consider `NS(=O)(=O)n1ccc(C2CCNCC2)c1C(=O)O` [Example 57, 3-(Piperidin-4-yl)-1-sulfamoyl-1H-pyrrole-2-carboxylic acid hydrochloride], for which the CC50 at 24 h was greater than 256 µg/mL.

Take `CS(=O)(=O)N1CCC(c2ccn(S(N)(=O)=O)c2C(=O)O)CC1` [Example 59, 3-(1-Methylsulfonyl-4-piperidyl)-1-sulfamoyl-pyrrole-2-carboxylic acid]: the CC50 at 24 h is greater than 256 µg/mL. Regarding `CCc1cn(S(N)(=O)=O)c(C(=O)O)c1-c1ccccc1` [Example 74, 4-Ethyl-3-phenyl-1-sulfamoyl-pyrrole-2-carboxylic acid], the CC50 at 24 h was determined as 237 µg/mL (≈ 805 µM). Still for that read-out and setting: then `Cc1cn(S(N)(=O)=O)c(C(=O)O)c1-c1ccccc1` [Example 75, 4-Methyl-3-phenyl-1-sulfamoyl-1H-pyrrole-2-carboxylic acid], with greater than 256 µg/mL; and `NS(=O)(=O)c1ccn(-c2ccc(F)cc2)c1C(=O)O` [Example 80, 1-(4-Fluorophenyl)-3-sulfamoyl-pyrrole-2-carboxylic acid], with greater than 256 µg/mL; and `Cc1ccc(-n2ccc(S(N)(=O)=O)c2C(=O)O)cc1` [Example 81, 1-(p-Tolyl)-3-sulfamoyl-pyrrole-2-carboxylic acid], with greater than 256 µg/mL. As for `NS(=O)(=O)c1ccn(-c2ccc(C3CCNCC3)cc2)c1C(=O)O` [Example 82, 1-[4-(Piperidin-4-yl)phenyl]-3-sulfamoyl-1H-pyrrole-2-carboxylic acid, sodium salt], the CC50 at 24 h was greater than 256 µg/mL. On the same count and under the same terms, next, `COc1ccc(-n2ccc(S(N)(=O)=O)c2C(=O)O)cc1` [Example 83, 1-(4-Methoxyphenyl)-3-sulfamoyl-pyrrole-2-carboxylic acid]: greater than 256 µg/mL. With `NS(=O)(=O)c1ccn(Cc2ccccc2)c1C(=O)O` [Example 84, 1-Benzyl-3-sulfamoyl-pyrrole-2-carboxylic acid], the cytotoxic concentration (CC50) at 24 h is greater than 256 µg/mL.

A further data set concerns the target NDM-1 (Klebsiella pneumoniae, UniProt C7C422). Kind of data set: metallo-β-lactamase inhibition assay (nitrocefin). Particulars: 1.5 nM NDM-1, 100 μM nitrocefin, 37° C., pH 7.5. The class given is biochemical. How it is done: Compounds of the invention were tested in a metallo-β-lactamase inhibition assay to investigate mechanism of action of the compounds. Results are reported as the concentration of test article required to inhibit enzyme activity by 50% (IC50).
Inhibition of metallo-β-lactamase enzyme function was performed at 37° C. in buffer at pH 7.5 (50 mM HEPES, 150 mM NaCl, 0.1 mM ZnSO4, 20 μg/mL PEG4000), containing 1.5 nM NDM-1, 100 μM nitrocefin, and a range of concentrations of compound. Absorbance at 490 nm was measured using a BMG LABTECH FLUOstar Omega microplate reader every minute for 30 minutes. IC50S were determined from the average increase in OD per minute versus the Log 10 concentration of compound using GraphPad Prism.
For `Nc1ccc(-c2ccn(S(N)(=O)=O)c2C(=O)O)cn1` [Example 1, 3-(6-Aminopyridin-3-yl)-1-sulfamoyl-1H-pyrrole-2-carboxylic acid], the pIC50 was 6.08. In turn, `Cc1ccc(-c2ccn(S(N)(=O)=O)c2C(=O)O)cc1` [Example 2, 3-(p-tolyl)-1-sulfamoyl-1H-pyrrole-2-carboxylic acid, sodium salt] showed a pIC50 of 6.32.

For `CS(=O)(=O)c1ccc(-c2ccn(S(N)(=O)=O)c2C(=O)O)cc1` [Example 5, 3-(4-Methanesulfonylphenyl)-1-sulfamoyl-1H-pyrrole-2-carboxylic acid, sodium salt], the pIC50 was 6.35. Compound `Cn1cc(-c2ccn(S(N)(=O)=O)c2C(=O)O)cn1` [Example 6, 3-(1-Methyl-1H-pyrazol-4-yl)-1-sulfamoyl-1H-pyrrole-2-carboxylic acid, sodium salt] had a pIC50 of 5.54. Consider `NS(=O)(=O)n1ccc(-c2cccnc2)c1C(=O)O` [Example 8, 3-(Pyridin-3-yl)-1-sulfamoyl-1H-pyrrole-2-carboxylic acid, sodium salt], for which the pIC50 is 6.35. The same measure, in the same setting: next, `CC(=O)Nc1ccc(-c2ccn(S(N)(=O)=O)c2C(=O)O)cn1` [Example 24, 3-(6-Acetamido-3-pyridyl)-1-sulfamoyl-pyrrole-2-carboxylic acid]: 6.22; `Nc1ncc(-c2ccn(S(N)(=O)=O)c2C(=O)O)cn1` [Example 25, 3-(2-Aminopyrimidin-5-yl)-1-sulfamoyl-pyrrole-2-carboxylic acid, sodium salt]: 5.87. As to `NC(=O)c1ccc(-c2ccn(S(N)(=O)=O)c2C(=O)O)cc1` [Example 26, 3-(4-Carbamoylphenyl)-1-sulfamoyl-pyrrole-2-carboxylic acid], the pIC50 is 6.29.

With `NS(=O)(=O)n1ccc(-c2cccc(C3CCNCC3)c2)c1C(=O)O` [Example 40, 3-[3-(4-Piperidyl)phenyl]-1-sulfamoyl-pyrrole-2-carboxylic acid hydrochloride], the pIC50 was 6.58.

In the case of `Nc1nc2ccc(-c3ccn(S(N)(=O)=O)c3C(=O)O)cn2n1` [Example 47, 3-(2-Amino-[1,2,4]triazolo[1,5-a]pyridin-6-yl)-1-sulfamoyl-pyrrole-2-carboxylic acid hydrochloride], the pIC50 is 6.18. The compound `NCCCNC(=O)c1ccc(-c2ccn(S(N)(=O)=O)c2C(=O)O)cc1` [Example 51, 3-[4-(3-Aminopropylcarbamoyl)phenyl]-1-sulfamoyl-pyrrole-2-carboxylic acid hydrochloride] had a pIC50 of 6.58.

For the compound `Nc1nc2c(-c3ccn(S(N)(=O)=O)c3C(=O)O)cccc2s1` [Example 53, 3-(2-Amino-1,3-benzothiazol-4-yl)-1-sulfamoyl-pyrrole-2-carboxylic acid hydrochloride], the pIC50 was 6.50. The same measure, in the same setting: next, `NCCC(=O)N1CCC(c2ccn(S(N)(=O)=O)c2C(=O)O)CC1` [Example 63, 3-[1-(3-Aminopropanoyl)-4-piperidyl]-1-sulfamoyl-pyrrole-2-carboxylic acid]: 6.08.
